Consider six compounds from ChEMBL document CHEMBL4371023, “Synthesis of new betulinic acid/betulin-derived dimers and hybrids with potent antimalarial and antiviral activities” (Bioorg Med Chem, 2019).

pEC50: −log10 of the molar value.

The subject of assay [1] is Plasmodium falciparum. Nature of the assay: Potency index, ratio of betulin EC50 to compound EC50 for antimalarial activity against ring stage Plasmodium falciparum 3D7 infected in type A-positive human erythrocytes. It counts as functional.
In assay [2] the test system is Plasmodium falciparum. Nature of the assay: Antimalarial activity against ring stage Plasmodium falciparum 3D7 infected in type A-positive human erythrocytes after 72 hrs by SYBR green 1 dye-based fluorescence assay. In kind it is functional, organism-based. As to conditions: 3D7, 72 h.
Assay [3] relates to Human betaherpesvirus 5. Nature of the assay: Antiviral activity against recombinant HCMV AD169 expressing GFP infected in human foreskin fibroblasts measured after 7 days by GFP-based multi-round replication assay. In kind it is functional, organism-based. The settings on record: Human betaherpesvirus 5, strain AD169, 168 h.
The test system of assay [4] is Plasmodium falciparum. Nature of the assay: Potency index, ratio of betulinic acid EC50 to compound EC50 for antimalarial activity against ring stage Plasmodium falciparum 3D7 infected in type A-positive human erythrocytes. In kind it is functional.
Assay [5] concerns Human betaherpesvirus 5. The assay is described as follows: Potency index, ratio of betulinic acid EC50 to compound EC50 for antiviral activity against recombinant HCMV AD169 expressing GFP infected in human foreskin fibroblasts. In kind it is functional, strain AD169.
The test system of assay [6] is Human betaherpesvirus 5. The assay is described as follows: Potency index, ratio of artesunic acid EC50 to compound EC50 for antiviral activity against recombinant HCMV AD169 expressing GFP infected in human foreskin fibroblasts. It counts as functional, strain AD169.

Regarding `C=C(C)[C@@H]1CC[C@]2(COC(=O)CCC(=O)O[C@@H]3O[C@@H]4O[C@@]5(C)CC[C@H]6[C@H](C)CC[C@@H]([C@H]3C)[C@@]46OO5)CC[C@]3(C)[C@H](CC[C@@H]4[C@@]5(C)CC[C@H](O)C(C)(C)[C@@H]5CC[C@]43C)[C@@H]12`, in the assay on Plasmodium falciparum [1], the “Ratio EC50” value worked out at 20. Further, the pEC50 in the assay on Plasmodium falciparum [2] was 6.59; with Human betaherpesvirus 5 [3] it was 6.06.

On to `C=C(C)[C@@H]1CC[C@]2(C(=O)O)CC[C@]3(C)[C@H](CC[C@@H]4[C@@]5(C)CC[C@H](OC(=O)CCC(=O)O[C@@H]6O[C@@H]7O[C@@]8(C)CC[C@H]9[C@H](C)CC[C@@H]([C@H]6C)[C@@]79OO8)C(C)(C)[C@@H]5CC[C@]43C)[C@@H]12`, for which the “Ratio EC50” value in the assay with Plasmodium falciparum [4] amounted to 16; with Human betaherpesvirus 5 [5], 15; with Human betaherpesvirus 5 [6], 23. Moreover, the pEC50 with Plasmodium falciparum [2] was 7.07; in the assay with Human betaherpesvirus 5 [3] it was 6.62.

For the compound `C[C@H]1[C@@H](O)O[C@@H]2O[C@@]3(C)CC[C@H]4[C@H](C)CC[C@@H]1[C@@]24OO3` [ARTENIMOL], the figures for the pEC50 in the assay with Plasmodium falciparum [2] and in the assay on Human betaherpesvirus 5 [3] were 8.59 and less than 5.00, respectively.

For `C=C(C)[C@@H]1CC[C@]2(C(=O)O)CC[C@]3(C)[C@H](CC[C@@H]4[C@@]5(C)CC[C@H](O)C(C)(C)[C@@H]5CC[C@]43C)[C@@H]12` [BETULINIC ACID], the results for the pEC50 with Plasmodium falciparum [2] and in the assay on Human betaherpesvirus 5 [3] were 5.85 and 5.44, respectively.

For the compound `C=C(C)[C@@H]1CC[C@]2(CO)CC[C@]3(C)[C@H](CC[C@@H]4[C@@]5(C)CC[C@H](O)C(C)(C)[C@@H]5CC[C@]43C)[C@@H]12` [BETULIN], the pEC50 in the assay with Plasmodium falciparum [2] is 5.40; in the assay on Human betaherpesvirus 5 [3], 5.70.

Consider `CCN(CC)CCCC(C)Nc1ccnc2cc(Cl)ccc12` (stereo not given) [CHLOROQUINE PHOSPHATE], for which, in the assay with Plasmodium falciparum [2], the negative logarithm of the EC50 (pEC50) is 8.08.

A word on the pEC50: it is −log10 of the EC50, conventionally taken in molar units.
